The values below come from patent US10988478B1, “Pyrazolo[1,5a]pyrimidine derivatives as IRAK4 modulators” (Genentech, Inc., priority 2015, dated 2021).

Molecules are shown by their SMILES.

The assay deals with human IRAK4 (Homo sapiens (Human), UniProt Q9NWZ3). Kind of assay: IRAK4 kinase inhibition, Transcreener fluorescence polarization ADP assay. It is filed as biochemical. The conditions noted are these: recombinant full-length His6-IRAK4; 125 uM ATP; 90 min; Ki computed using ATP Km 642 uM. Here is the method: Compounds were assayed for inhibition of human IRAK4 and IRAK1 catalytic activity using recombinant enzyme produced from insect cells. Full-length IRAK4 protein, carrying an N-terminal His6-Tag, was obtained from Life Technologies (Carlsbad, Calif., USA). The IRAK1 construct was produced internally and was comprised of IRAK1 residues Arg194 to Ser712, preceded by an NH2-terminal His6 tag and the coding sequence for glutathione-S-transferase.
Sequence of human IRAK4 (Q9NWZ3 whole entry, the tested form may be a part): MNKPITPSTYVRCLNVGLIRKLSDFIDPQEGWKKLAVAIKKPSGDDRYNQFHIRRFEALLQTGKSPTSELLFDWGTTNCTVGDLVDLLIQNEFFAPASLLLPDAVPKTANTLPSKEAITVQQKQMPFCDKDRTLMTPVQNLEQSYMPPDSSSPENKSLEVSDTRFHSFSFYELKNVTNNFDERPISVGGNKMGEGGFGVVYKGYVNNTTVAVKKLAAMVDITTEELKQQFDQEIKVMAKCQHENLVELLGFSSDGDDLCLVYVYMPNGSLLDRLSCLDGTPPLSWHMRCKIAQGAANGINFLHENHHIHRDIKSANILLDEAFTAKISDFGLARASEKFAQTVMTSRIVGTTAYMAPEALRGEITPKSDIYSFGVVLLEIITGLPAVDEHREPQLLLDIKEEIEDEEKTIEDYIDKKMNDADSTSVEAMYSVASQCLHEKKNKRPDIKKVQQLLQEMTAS
For the compound `C[C@]1(O)COc2cc(N3CCOCC3)c(NC(=O)c3cnn4cccnc34)cc2C1` (single isomer, unassigned) [Example 27], the Ki came to 260 nM.
Take `C[C@@]1(O)COc2cc(N3CCOCC3)c(NC(=O)c3cnn4cccnc34)cc2C1` (single isomer, unassigned) [Example 28]: the Ki stood at 27 nM.
For the compound `C[C@]1(CO)Cc2cc(NC(=O)c3cnn4cccnc34)c(N3CCC(F)(CO)CC3)cc2O1` (single isomer, unassigned) [Example 44], the Ki is 1.7 nM.
For `C[C@@]1(CO)Cc2cc(NC(=O)c3cnn4cccnc34)c(N3CCC(F)(CO)CC3)cc2O1` (single isomer, unassigned) [Example 45], the Ki was 1.9 nM.
The figure for `C[C@@]1(CO)Cc2cc(NC(=O)c3cnn4cccnc34)c(N3C[C@@H]4C[C@H]3CO4)cc2O1` (single isomer, unassigned) [Example 46] is 540 nM; for `CC[C@]1(C)Cc2cc(NC(=O)c3cnn4cccnc34)c(N3CCOCC3)cc2O1` (single isomer, unassigned) [Example 97] it is 7.2 nM.
The figure for `C[C@]1(CO)Cc2cc(NC(=O)c3cnn4cc(Cl)cnc34)c(N3CCOCC3)cc2O1` (single isomer, unassigned) [Example 166] is 18 nM; for `C[C@@]1(CO)Cc2cc(NC(=O)c3cnn4cc(Cl)cnc34)c(N3CCN(CC(F)F)CC3)cc2O1` (single isomer, unassigned) [Example 169] it is 2.5 nM; for `CC1(C)Cc2cc(NC(=O)c3cnn4cccnc34)c(N3CC[C@@]4(CCOC4)C3)cc2O1` (single isomer, unassigned) [Example 222] it is 94 nM.
The same measure for `CC1(C)Cc2cc(NC(=O)c3cnn4cccnc34)c(N3CC[C@]4(CCOC4)C3)cc2O1` (single isomer, unassigned) [Example 223]: 72 nM; for `CC(C)(O)[C@H](F)CN1Cc2cc(NC(=O)c3cnn4cccnc34)c(N3CCC([C@H](O)C(F)(F)F)CC3)cc2C1=O` (single isomer, unassigned) [Example 259]: 2 nM.
For `O=C(Nc1cc2c(cc1N1CCOCC1)C(=O)N(C1CCOC1)C2)c1cnn2cccnc12` (single isomer, unassigned) [Example 275, N-(6-morpholino-1-oxo-2-(tetrahydrofuran-3-yl)isoindolin-5-yl)pyrazolo[1,5-a]pyrimidine-3-carboxamide], the Ki stood at 34 nM.
Turning to `O=C(Nc1cc2c(cc1N1CCOCC1)C(=O)N(C1CCOC1)C2)c1cnn2cccnc12` (single isomer, unassigned) [Example 276, N-(6-morpholino-1-oxo-2-(tetrahydrofuran-3-yl)isoindolin-5-yl)pyrazolo[1,5-a]pyrimidine-3-carboxamide], the Ki was 26 nM.
On to `O=C(Nc1cc2c(cc1N1CCOCC1)C(=O)N(CC1CCCCO1)C2)c1cnn2cccnc12` (single isomer, unassigned) [Example 277, N-(6-morpholino-1-oxo-2-((tetrahydro-2H-pyran-2-yl)methyl)isoindolin-5-yl)pyrazolo[1,5-a]pyrimidine-3-carboxamide], for which the Ki amounted to 16 nM.
For the compound `O=C(Nc1cc2c(cc1N1CCOCC1)C(=O)N(CC1CCCCO1)C2)c1cnn2cccnc12` (single isomer, unassigned) [Example 278, N-(6-morpholino-1-oxo-2-((tetrahydro-2H-pyran-2-yl)methyl)isoindolin-5-yl)pyrazolo[1,5-a]pyrimidine-3-carboxamide], the Ki is 4 nM.
As to `CC(C)(O)[C@H](F)CN1Cc2cc(NC(=O)c3cnn4cccnc34)c(N3CCC([C@H](O)C(F)F)CC3)cc2C1=O` (single isomer, unassigned) [Example 282], the inhibitory constant (Ki) turned out to be 2 nM.
With `CC(C)(O)[C@H](F)CN1Cc2cc(NC(=O)c3cnn4cccnc34)c(N3CCC([C@@H](O)C(F)F)CC3)cc2C1=O` (single isomer, unassigned) [Example 283], the inhibitory constant (Ki) was found to be 2 nM.
The same measure for `O=C(Nc1cc2c(cc1N1CCC(F)(CO)CC1)O[C@](CO)(C(F)(F)F)C2)c1cnn2cccnc12` (single isomer, unassigned) [Example 318]: 4.3 nM; for `C[C@@]1(O)CCCN(c2cc3c(cc2NC(=O)c2cnn4cccnc24)C[C@@](C)(CO)O3)CC1` (single isomer, unassigned) [Example 331]: 12 nM; for `CC1(CO)Cc2cc(NC(=O)c3cnn4cccnc34)c(N3CCC(n4ccnc4)CC3)cc2O1` (single isomer, unassigned) [Example 344, N-(6-(4-(1H-imidazol-1-yl)piperidin-1-yl)-2-(hydroxymethyl)-2-methyl-2,3-dihydrobenzofuran-5-yl)pyrazolo[1,5-a]pyrimidine-3-carboxamide]: 8 nM.
As for `CC1(CO)Cc2cc(NC(=O)c3cnn4cccnc34)c(N3CCC(n4ccnc4)CC3)cc2O1` (single isomer, unassigned) [Example 345, N-(6-(4-(1H-imidazol-1-yl)piperidin-1-yl)-2-(hydroxymethyl)-2-methyl-2,3-dihydrobenzofuran-5-yl)pyrazolo[1,5-a]pyrimidine-3-carboxamide], the Ki came to 4 nM.
Turning to `C[C@]1(CO)Cc2cc(NC(=O)c3cnn4cccnc34)c(N3CCC4(CC3)CNC(=O)C4)cc2O1` (single isomer, unassigned) [Example 417], the Ki amounted to 3.6 nM.
Turning to `C[C@]1(CO)Cc2cc(NC(=O)c3cnn4cccnc34)c(N3Cc4cccnc4C3)cc2O1` (single isomer, unassigned) [Example 419], the Ki amounted to 9 nM.
For `C[C@]1(O)COc2cc(N3CCC([C@@](C)(O)C(F)(F)F)CC3)c(NC(=O)c3cnn4cccnc34)cc2C1` (single isomer, unassigned) [Example 422], the Ki is 110 nM.
Regarding `Cn1cc(COc2cc3c(cc2NC(=O)c2cnn4cccnc24)C[C@@](C)(O)CO3)cn1` (single isomer, unassigned) [Example 430], the Ki amounted to 130 nM.
With `C[C@]1(CO)CCc2cc(NC(=O)c3cnn4cccnc34)c(N3CCOCC3)cc2O1` (single isomer, unassigned) [Example 432], the inhibition constant (Ki) worked out at 10 nM.
`C[C@@]1(CO)CCc2cc(NC(=O)c3cnn4cccnc34)c(N3CCOCC3)cc2O1` (single isomer, unassigned) [Example 433]: the Ki came out at 14 nM.
With `C[C@@]1(CO)CCc2cc(NC(=O)c3cnn4cccnc34)c(N3CCOCC3)cc2O1` (single isomer, unassigned) [Example 436], the Ki amounted to 10 nM.
As to `C[C@]1(CO)CCc2cc(NC(=O)c3cnn4cccnc34)c(N3CCOCC3)cc2O1` (single isomer, unassigned) [Example 437], the Ki is 14 nM.
For the compound `O=C(Nc1cc2c(cc1N1CCOCC1)C(=O)N(CC1CCOC1)C2)c1cnn2cccnc12` (single isomer, unassigned) [Example 555], the Ki was 3.8 nM.
Regarding `CC(CC(C)(C)O)N1Cc2cc(NC(=O)c3cnn4cccnc34)c(N3CCOCC3)cc2C1=O` (stereo in doubt) [Example 544, N-[2-[(1S)-3-hydroxy-1,3-dimethyl-butyl]-6-morpholino-1-oxo-isoindolin-5-yl]pyrazolo[1,5-a]pyrimidine-3-carboxamide], the Ki came to 13 nM.
In the case of `CC(CC(C)(C)O)N1Cc2cc(NC(=O)c3cnn4cccnc34)c(N3CCOCC3)cc2C1=O` (stereo in doubt) [Example 545, N-[2-[(1R)-3-hydroxy-1,3-dimethyl-butyl]-6-morpholino-1-oxo-isoindolin-5-yl]pyrazolo[1,5-a]pyrimidine-3-carboxamide], the Ki was determined as 5.9 nM.
For `O=C(Nc1cc2c(cc1N1CCOCC1)C(=O)N(C[C@@H]1CCC[C@H]1O)C2)c1cnn2cccnc12` (stereo in doubt) [Example 549, N-[2-[[(1S,2R)-2-hydroxycyclopentyl]methyl]-6-morpholino-1-oxo-isoindolin-5-yl]pyrazolo[1,5-a]pyrimidine-3-carboxamide], the inhibition constant (Ki) amounted to 8.1 nM.
With `O=C(Nc1cc2c(cc1N1CCOCC1)C(=O)N(C[C@H]1CCC[C@@H]1O)C2)c1cnn2cccnc12` (stereo in doubt) [Example 550, N-[2-[[(1R,2S)-2-hydroxycyclopentyl]methyl]-6-morpholino-1-oxo-isoindolin-5-yl]pyrazolo[1,5-a]pyrimidine-3-carboxamide], the Ki came to 2.1 nM.
As to `O=C(Nc1cc2c(cc1N1CCC(CO)CC1)OCCN2)c1cnn2cccnc12` [Example 1, N-(7-(4-(Hydroxymethyl)piperidin-1-yl)-3,4-dihydro-2H-benzo[b][1,4]oxazin-6-yl)pyrazolo[1,5-a]pyrimidine-3-carboxamide], the inhibitory constant (Ki) is 4.7 nM.
Turning to `O=C1COc2cc(N3CCC(CO)CC3)c(NC(=O)c3cnn4cccnc34)cc2N1` [Example 2, N-(7-(4-(Hydroxymethyl)piperidin-1-yl)-3-oxo-3,4-dihydro-2H-benzo[b][1,4]oxazin-6-yl)pyrazolo[1,5-a]pyrimidine-3-carboxamide], the inhibition constant Ki was 26 nM.
In the case of `CNC[C@H]1OC[C@H](c2cc3c(cc2NC(=O)c2cnn4cccnc24)CC(C)(C)O3)CO1` [Example 3, Trans-N-[2,2-dimethyl-6-[2-(methylaminomethyl)-1,3-dioxan-5-yl]-3H-benzofuran-5-yl]pyrazolo[1,5-a]pyrimidine-3-carboxamide], the Ki came to 150 nM.
`CC1(C)Cc2cc(NC(=O)c3cnn4cccnc34)c(N3CCC(CO)CC3)cc2O1` [Example 4, N-(6-(4-(Hydroxymethyl)piperidin-1-yl)-2,2-dimethyl-2,3-dihydrobenzofuran-5-yl)pyrazolo[1,5-a]pyrimidine-3-carboxamide]: the Ki was determined as 1.5 nM.
Consider `CC1(C)CNc2cc(NC(=O)c3cnn4cccnc34)c(N3CCOCC3)cc2O1` [Example 5, N-(2,2-Dimethyl-7-morpholino-3,4-dihydro-2H-benzo[b][1,4]oxazin-6-yl)pyrazolo[1,5-a]pyrimidine-3-carboxamide], for which the inhibition constant (Ki) is 54 nM.
